Experimental data: PubChem BioAssay AID435010 (Broad Institute, 2010)
Results filed as inconclusive are left out. Activity calls are given as the source filed them. The rule behind the calls is not given here.

Target: Protein RecA (Mycobacterium tuberculosis (strain ATCC 25618 / H37Rv)) (UniProt P9WHJ3)
Assay: RecA intein splicing inhibitors, Mycobacterium tuberculosis, cell free fluorescence, confirmatory dose response (AID 435010)

Protein RecA (Mycobacterium tuberculosis (strain ATCC 25618 / H37Rv)), sequence (P9WHJ3 whole entry, looked up): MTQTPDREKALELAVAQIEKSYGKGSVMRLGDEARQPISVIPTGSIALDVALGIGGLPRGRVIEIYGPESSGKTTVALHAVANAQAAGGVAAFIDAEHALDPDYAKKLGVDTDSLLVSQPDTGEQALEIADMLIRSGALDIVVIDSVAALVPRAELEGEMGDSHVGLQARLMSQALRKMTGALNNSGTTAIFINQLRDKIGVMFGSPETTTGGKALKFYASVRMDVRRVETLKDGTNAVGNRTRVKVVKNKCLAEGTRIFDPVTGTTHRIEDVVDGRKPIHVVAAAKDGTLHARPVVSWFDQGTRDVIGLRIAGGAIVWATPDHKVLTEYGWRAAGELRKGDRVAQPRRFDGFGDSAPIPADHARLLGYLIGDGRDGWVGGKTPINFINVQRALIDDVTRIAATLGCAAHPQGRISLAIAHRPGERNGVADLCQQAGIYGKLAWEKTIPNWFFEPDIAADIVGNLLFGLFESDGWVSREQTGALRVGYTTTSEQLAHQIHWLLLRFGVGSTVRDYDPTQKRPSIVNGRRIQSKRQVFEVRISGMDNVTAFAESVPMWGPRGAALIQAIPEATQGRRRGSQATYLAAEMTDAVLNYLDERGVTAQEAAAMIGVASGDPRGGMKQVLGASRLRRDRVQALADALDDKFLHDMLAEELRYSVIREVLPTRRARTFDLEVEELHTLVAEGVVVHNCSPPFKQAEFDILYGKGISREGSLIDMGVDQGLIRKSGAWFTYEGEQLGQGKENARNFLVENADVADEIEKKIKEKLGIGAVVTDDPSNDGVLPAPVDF

Structure (SMILES) | EC50
N[C@@H]1CCCC[C@H]1N.O=C(O)C(=O)O.[Pt] | 32.5 µM
CC1=NN(Cc2ccccc2)C(=O)/C1=C\c1ccc(N(C)C)cc1 | > 38 µM (inactive)
O=C(CCCN1C(=O)/C(=C/c2ccccc2)SC1=S)Nc1ccc(O)cc1 | > 38 µM (inactive)
